In patent publication US5369016A, “Peptide amidase and the use thereof” (Forschungszentrum Juelich GmbH, priority 1990, dated 1994):
Read-outs that look alike come from different tables or passages of the source. Peptide text beside a SMILES is read from it. * marks the point of attachment. pNA = O=[N+]([O-])c1ccc(N*)cc1; Cbz = O=C(OCc1ccccc1)*; Boc = CC(C)(C)OC(=O)*

Tests used:
peptide amidase [1] = assay: Effect of chelating agents, metal cations and enzyme inhibitors on peptide amidase activity; assay type: biochemical, navel oranges
Experimental: The effect of the following inhibitors on peptide amidase activity was determined under standard conditions according to the methods described in Example 1. The inhibitor concentration was 10 mM in each case.

peptide amidase [2] = assay: Deamidation of N-terminal protected amino acid amides; assay type: biochemical, orange; settings: for Spec. Activity / Yield: 10 mM substrate, 50 μg.ml peptide amidase, pH 7.0, 30° C.; for Spec. Activity: 50 mM tris/HCl
Experimental: Separating conditions according to Example 3A were employed.
Eluent: TBA/acetonitrile 65:35 (90:10 for Bz-Arg-NH2)
Reaction conditions: 10 mM substrate; 50 μg.ml peptide amidase; 50 mM
tris/HCl; pH 7.0; Temperature 30° C.

peptide amidase [3] = tested on: peptide amidase
Experimental: A reaction mixture comprising the following constituents was employed:
850 μl of the particular solvent/tris (50 mM; pH 7.5) mixture
100 μl of substrate (10 mM Z-Gly-Tyr-NH2)
50 μl of amidase (40 μg of protein)
The reaction was initiated by the addition of the enzyme to prevent inactivation of the enzyme prior to the reaction.

[4] = tested on: peptide amidase from orange flavedo; assay: Cleavage of amides of amino acids (TLC); assay type: biochemical; design: scale not given here; settings: 50 μg/ml; 10 mM substrate; 24 h; 0.05M KPi, pH 7.5; * = slight traces
Experimental: A DEAE-purified enzyme was employed in these experiments (volumetric activity: 40 U/ml for the substrate For-Tyr-Arg-NH2).
from orange flavedo. (50 μg/ml; 10 mM substrate)
Eluent: pyridine/butanol/AcOH/H2 O (12:15:3:5).
Reaction: 24 h, RT; 0.05M KPi, pH 7.5., 30° C.
Blank sample without enzyme.

peptide amidase [5] = assay: Enzymatic cleavage of N-terminal protected dipeptide amides; assay type: biochemical, orange
Text: The results in Table 7 were obtained using an eluent: TBA/acetonitrile 60/40 (% volume)

peptide amidase [6] = assay: Effect of the acetone concentration on kinetic parameters Km and Vmax; assay type: biochemical, orange
Experimental: Substrate: Z--Gly--Tyr--NH2; 40 μg/ml peptide amidase in 50 mM

peptide amidase [7] = assay: Enzymatic reaction of peptide amides with a chain length of greater than three amino acids; assay type: biochemical, orange
Experimental: Enzymatic reaction of peptide amides with a chain length of greater than
three amino acids. Reaction conditions: 10 mM substrate, 40 μg/ml
50 mM tris/HCL, pH 7.0, temp. 30° C.

[8] = inhibitor 0.01 m (10 mM), standard conditions of Example 1
[9] = peptide amidase, pH 7, 10000 µM
[10] = 89.1% solvent, substrate Z-Gly-Tyr-NH2
[11] = enzymatic cleavage of the C-terminal amide
[12] = peptide amidase, 6 h, 10000 µM, pH 7

O[C@H](CS)[C@H](O)CS (racemic) [Dithiothreitol]
% activity remaining (peptide amidase [1]; [8]): 100%

CC(=O)N[C@@H](Cc1c[nH]c2ccccc12)C(N)=O [Ac--Trp--NH2]
Spec. Activity (peptide amidase [2]): 2.32 U/mg | Yield (peptide amidase [2]; 28 min): 32.4 %/28 min | Yield (peptide amidase [2]; 120 min): 100 %/2 h | Yield after 45 min (peptide amidase [2]; [9]): 48.9%

CC(C)=O [Acetone]
Activity (peptide amidase [3]; 5.0% solvent): 2.011 U/mg | Activity (peptide amidase [3]; 18.0% solvent): 1.863 U/mg | Activity (peptide amidase [3]; 27.0% solvent): 1.748 U/mg | Activity (peptide amidase [3]; 36.0% solvent): 1.527 U/mg | Activity (peptide amidase [3]; 45.0% solvent): 1.38 U/mg | Activity (peptide amidase [3]; 72.0% solvent): 0.585 U/mg | Activity (peptide amidase [3]; [10]): 0.224 U/mg

C[C@H](N)C(N)=O [Ala--NH2]
Reaction [4]: 0

N=C(N)NCCC[C@H](N)C(N)=O [Arg--NH2]
Reaction [4]: 0

CC(C)C[C@H](NC(=O)OC(C)(C)C)C(=O)N[C@H](C(N)=O)C(C)C [Boc--Leu--Val--NH2] (Boc-Leu-Val-NH2)
Yield (peptide amidase [5]; peptide amidase): 20%

N=C(N)NCCC[C@H](NC(=O)c1ccccc1)C(N)=O [Bz--Arg--NH2]
Spec. Activity (peptide amidase [2]): 4.39 U/mg | Yield (peptide amidase [2]; 28 min): 61.6 %/28 min | Yield (peptide amidase [2]; 120 min): 100 %/2 h | Yield after 45 min (peptide amidase [2]; [9]): 73.5% | variation of Km and Vmax with solvent concentration (in words) (peptide amidase [6]): did not vary significantly

NC(=O)[C@H](Cc1ccc(O)cc1)NC(=O)c1ccccc1 [Bz--Tyr--NH2]
Spec. Activity (peptide amidase [2]): 6.34 U/mg | Yield (peptide amidase [2]; 28 min): 88.7 %/28 min | Yield (peptide amidase [2]; 120 min): 100 %/2 h | yield after 15 minutes (peptide amidase [2]; [9]): 47.6% | Yield (peptide amidase [5]; [11]): 100%

C[C@@H]1C[C@@H]([C@H](O)CC2CC(=O)NC(=O)C2)C(=O)[C@@H](C)C1 [Cycloheximide]
% activity remaining (peptide amidase [1]; [8]): 98%

N[C@@H]1CON=C1O [Cycloserine]
% activity remaining (peptide amidase [1]; [8]): 100%

C[C@@H](N)C(N)=O [D-Ala--NH2]
Reaction [4]: 0

CC(C)C[C@@H](N)C(N)=O [D-Leu--NH2]
Reaction [4]: 0

NC(=O)[C@H](N)Cc1ccccc1 [D-Phe--NH2]
Reaction [4]: 0

O=C(O)CN(CCN(CC(=O)O)CC(=O)O)CC(=O)O [EDTA, ethylenedinitrilotetraacetic acid]
% activity remaining (peptide amidase [1]): 92%

CCN1C(=O)C=CC1=O [EMI, ethylmaleimide]
% activity remaining (peptide amidase [1]; [8]): 100%

CCO [Ethanol]
Activity (peptide amidase [3]; 5.0% solvent): 1.269 U/mg | Activity (peptide amidase [3]; 18.0% solvent): 0.938 U/mg | Activity (peptide amidase [3]; 27.0% solvent): 0.814 U/mg | Activity (peptide amidase [3]; 36.0% solvent): 0.613 U/mg | Activity (peptide amidase [3]; 45.0% solvent): 0.448 U/mg | Activity (peptide amidase [3]; 54.0% solvent): 0.284 U/mg | Activity (peptide amidase [3]; 63.0% solvent): 0.204 U/mg | Activity (peptide amidase [3]; 72.0% solvent): 0.149 U/mg | Activity (peptide amidase [3]; [10]): 0.083 U/mg

N=C(N)NCCC[C@H](NC(=O)[C@H](Cc1ccc(O)cc1)NC=O)C(N)=O [For--Tyr--Arg--NH2]
Yield (peptide amidase [5]; peptide amidase): 100%

NCC(=O)O [Glycine]
% activity remaining (peptide amidase [1]): 99%

N=C(N)NCCC[C@H](NC(=O)[C@@H]1CCCN1)C(=O)NCC(N)=O [H--Pro--Arg--Gly--NH2] (H-Pro-Arg-Gly-NH2)
Yield (peptide amidase [7]; [12]): 100 %/6 h

CC(C)C[C@H](NC(=O)[C@H](Cc1ccccc1)NC(=O)CNC(=O)CNC(=O)[C@@H](N)Cc1ccc(O)cc1)C(N)=O [H--Tyr--Gly--Gly--Phe--Leu--NH2, Leu-Enkephalin]
Yield (peptide amidase [7]; 10 mM substrate, 40 μg/ml peptide amidase, 50 mM tris/HCL, pH 7.0, 30° C., 360 min): 100 %/6 h

[Cl][Hg][Cl] [HgCl2]
% activity remaining (peptide amidase [1]; [8]): 95%

NC(=O)[C@@H](N)Cc1cnc[nH]1 [His--NH2]
Reaction [4]: 0

CC[C@H](C)[C@H](N)C(N)=O [Ile--NH2]
Reaction [4]: 0

NC(=O)CI [Iodoacetamide]
% activity remaining (peptide amidase [1]; [8]): 99%

CC(C)C[C@H](N)C(N)=O [Leu--NH2]
Reaction [4]: 0

NCCCC[C@H](N)C(N)=O [Lys--NH2]
Reaction [4]: 0

CSCC[C@H](N)C(N)=O [Met--NH2]
Reaction [4]: 0

[N-]=[N+]=[N-].[Na+] [NaN3]
% activity remaining (peptide amidase [1]; [8]): 100%

O=S(=O)(F)Cc1ccccc1 [PMSF, phenylmethanesulfonyl fluoride]
inhibition of peptide amidase (in words) (peptide amidase [1]): significantly inhibited | % activity remaining (peptide amidase [1]; [8]): 55% | inhibition of peptide amidase (in words) (peptide amidase [1]; listed as phenylmethanesulfonyl fluoride): weak inhibition

NC(=O)[C@@H](N)Cc1ccccc1 [Phe--NH2]
Reaction [4]: 0

CCCO [Propanol]
Activity (peptide amidase [3]; 5.0% solvent): 0.927 U/mg | Activity (peptide amidase [3]; 18.0% solvent): 0.772 U/mg | Activity (peptide amidase [3]; 27.0% solvent): 0.474 U/mg | Activity (peptide amidase [3]; 36.0% solvent): 0.342 U/mg | Activity (peptide amidase [3]; 45.0% solvent): 0.12 U/mg | Activity (peptide amidase [3]; 54.0% solvent): 0.1 U/mg | Activity (peptide amidase [3]; 63.0% solvent): 0.1 U/mg | Activity (peptide amidase [3]; 72.0% solvent): 0.1 U/mg | Activity (peptide amidase [3]; [10]): 0.05 U/mg

NNC(N)=O [Semicarbazide]
% activity remaining (peptide amidase [1]; [8]): 102%

NC(=O)[C@@H](N)CO [Ser--NH2]
Reaction [4]: 0

C[C@@H](O)[C@H](N)C(N)=O [Thr--NH2]
Reaction [4]: 0

NC(=O)[C@@H](N)Cc1c[nH]c2ccccc12 [Trp--NH2]
Reaction [4]: 0

NC(=O)[C@@H](N)Cc1ccc(O)cc1 [Tyr--NH2]
Reaction [4]: 0

CC(C)[C@H](N)C(N)=O [Val--NH2]
Reaction [4]: 0

N=C(N)NCCC[C@H](NC(=O)OCc1ccccc1)C(=O)N[C@@H](CCCNC(=N)N)C(=O)Nc1ccc([N+](=O)[O-])cc1 [Z--Arg--Arg--pNa, reference compound] (Cbz-Arg-Arg-pNA)
reaction (in words) (peptide amidase [5]; comparison, 12 h): No reaction in 12 h

NC(=O)[C@H](Cc1ccccc1)NC(=O)CNC(=O)OCc1ccccc1 [Z--Gly--Phe--NH2] (Cbz-Gly-Phe-NH2)
Yield (peptide amidase [5]; peptide amidase): 100%

NC(=O)[C@H](Cc1ccc(O)cc1)NC(=O)CNC(=O)OCc1ccccc1 [Z--Gly--Tyr--NH2, benzyloxycarbonyl-glycyltyrosinamide] (Cbz-Gly-Tyr-NH2)
Yield (peptide amidase [5]; peptide amidase): 100% | Vmax (peptide amidase [6]; 5% acetone): 2.93 U/mg | Km (peptide amidase [6]; 5% acetone, 40 μg/ml peptide amidase, pH 7.5): 0.063 mM | Km (peptide amidase [6]; 20% acetone): 1.6 mM | Vmax (peptide amidase [6]; 20% acetone): 2.54 U/mg | Km (peptide amidase [6]; 40% acetone): 5.5 mM | Vmax (peptide amidase [6]; 40% acetone): 2.57 U/mg | Km (peptide amidase [6]; 60% acetone): 19.6 mM | Vmax (peptide amidase [6]; 60% acetone): 2.58 U/mg

N=C(N)NCCC[C@H](NC(=O)[C@@H]1CCCN1C(=O)OCc1ccccc1)C(=O)NCC(N)=O [Z--Pro--Arg--Gly--NH2] (Cbz-Pro-Arg-Gly-NH2)
Yield (peptide amidase [7]; [12]): 100 %/6 h

NC(=O)[C@H](Cc1ccccc1)NC(=O)[C@@H]1CCCN1C(=O)OCc1ccccc1 [Z--Pro--Phe--NH2] (Cbz-Pro-Phe-NH2)
Yield (peptide amidase [5]; peptide amidase): 100%

NC(=O)[C@H](Cc1c[nH]c2ccccc12)NC(=O)OCc1ccccc1 [Z--Trp--NH2]
Spec. Activity (peptide amidase [2]): 0.37 U/mg | Yield (peptide amidase [2]; 28 min): 5.16 %/28 min | Yield (peptide amidase [2]; 120 min): 23.5 %/2 h | Yield after 45 min (peptide amidase [2]; [9]): 14.9%

O=C(O)c1cc[c]([Hg][OH])cc1 [p-OHMBA, parahydroxymercuribenzoate]
% activity remaining (peptide amidase [1]; [8]): 96%

Bz--Tyr--Ala--NH2
Yield (peptide amidase [5]; [11]): 65%

Bz--Tyr--Ile--NH2
Yield (peptide amidase [5]; [11]): 100%

Bz--Tyr--Leu--NH2
Yield (peptide amidase [5]; [11]): 100%

Bz--Tyr--Lys--NH2
Yield (peptide amidase [5]; [11]): 100%

Bz--Tyr--Ser--NH2
Yield (peptide amidase [5]; [11]): 41%

Bz--Tyr--Thr--NH2
Yield (peptide amidase [5]; [11]): 63%

Bz--Tyr--Trp--NH2
Yield (peptide amidase [5]; [11]): 39%

Bz--Tyr--Val--NH2
Yield (peptide amidase [5]; [11]): 100%

Mal--Tyr--Arg--NH2
Yield (peptide amidase [5]; [11]): 100%
